This is an account of results in ChEMBL document CHEMBL1201862, “PubChem BioAssay data set” (2004).

The target of assay [1] is T1, Sentrin-specific protease 7 (Homo sapiens, UniProt Q9BQF6).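 Also: Luminescence-based dose-response confirmation of ultra-high-throughput screening hits, measuring inhibition of SENP7.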
T1 sequence (Q9BQF6 whole entry): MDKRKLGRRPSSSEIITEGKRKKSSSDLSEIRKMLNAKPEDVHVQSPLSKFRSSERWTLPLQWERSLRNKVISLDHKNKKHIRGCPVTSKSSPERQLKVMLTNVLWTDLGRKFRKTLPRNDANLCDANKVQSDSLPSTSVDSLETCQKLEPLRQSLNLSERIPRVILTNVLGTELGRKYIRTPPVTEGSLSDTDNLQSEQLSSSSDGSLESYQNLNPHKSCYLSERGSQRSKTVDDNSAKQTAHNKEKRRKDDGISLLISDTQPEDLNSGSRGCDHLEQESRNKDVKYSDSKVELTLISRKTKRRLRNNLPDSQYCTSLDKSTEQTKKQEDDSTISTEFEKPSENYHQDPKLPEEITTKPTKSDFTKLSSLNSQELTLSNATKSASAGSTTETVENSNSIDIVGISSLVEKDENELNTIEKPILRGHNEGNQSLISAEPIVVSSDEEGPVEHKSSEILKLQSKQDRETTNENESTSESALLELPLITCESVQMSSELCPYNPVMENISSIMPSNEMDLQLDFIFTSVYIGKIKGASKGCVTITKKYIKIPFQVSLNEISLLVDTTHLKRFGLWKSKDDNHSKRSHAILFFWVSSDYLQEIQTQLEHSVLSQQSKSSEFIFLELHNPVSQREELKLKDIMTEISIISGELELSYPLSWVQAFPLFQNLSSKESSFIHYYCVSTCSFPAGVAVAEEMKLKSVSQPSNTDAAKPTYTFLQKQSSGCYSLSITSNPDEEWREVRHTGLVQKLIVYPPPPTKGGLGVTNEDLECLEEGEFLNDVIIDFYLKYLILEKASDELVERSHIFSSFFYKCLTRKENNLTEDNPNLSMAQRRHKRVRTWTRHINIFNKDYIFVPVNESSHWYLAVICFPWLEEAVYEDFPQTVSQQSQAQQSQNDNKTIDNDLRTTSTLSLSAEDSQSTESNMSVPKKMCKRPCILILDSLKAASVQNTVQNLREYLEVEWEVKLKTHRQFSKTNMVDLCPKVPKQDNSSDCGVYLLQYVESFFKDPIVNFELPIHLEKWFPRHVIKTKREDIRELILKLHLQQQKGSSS
Type of assay: functional.

Assay [2] deals with T2, Sentrin-specific protease 8 (Homo sapiens, UniProt Q96LD8).
T2 sequence (Q96LD8 whole entry): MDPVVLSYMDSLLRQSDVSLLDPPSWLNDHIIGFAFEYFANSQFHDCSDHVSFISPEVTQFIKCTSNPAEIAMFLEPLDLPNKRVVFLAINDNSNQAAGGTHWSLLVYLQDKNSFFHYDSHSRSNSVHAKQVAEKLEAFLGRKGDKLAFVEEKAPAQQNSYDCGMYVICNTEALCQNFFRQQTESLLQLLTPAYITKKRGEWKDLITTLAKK
Type of assay: functional.

For the next assay, the system named is BJ. Put plainly: BJ-TERT fibroblast viability loss – cell-based, RAS-independent, luminescence, dose response (AID 1933). Type of assay: functional. As to conditions: Homo sapiens.
A short description of assay [3]: DRD fibroblast viability loss – cell-based, non-viral oncogenic, luminescence, dose response (AID 1934). The assay is classed as functional. To be noted: Homo sapiens.
Assay [4] is described as follows: THP-1 cell cytotoxicity, dose response, cytotoxicity control for non-replicating M. tuberculosis project (AID 489025). The assay is classed as functional.
The nature of assay [5]: HepG2 cell cytotoxicity, dose response, cytotoxicity control for non-replicating M. tuberculosis project (AID 489018). The assay is classed as functional. As to conditions: Mycobacterium tuberculosis.
The nature of assay [6]: alpha-synuclein stem-loop luciferase translation blockers – H4 neuroglioma cells, luminescence, confirmation (AID 1988). Type of assay: functional, cell-based.
A short description of assay [7]: fluconazole-exposed Candida albicans growth modulators – fluorescence, retest, confirmation (AID 2467). The assay is classed as functional, cell-based.
The target of another assay is Paired box protein Pax-8 (Homo sapiens, UniProt Q06710). Put plainly: PAX8 transcriptional activity inhibition in RMG-I – RMG-I cells, luciferase, cherry-pick, dose response (AID 687027).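 Also: luciferase reporter driven by Pax8 target thyroperoxidase promoter measured by SteadyGlo luminescence.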 The assay is classed as functional, cell-based.
The target of assay [8] is Ribosomal protein S6 kinase alpha-3 (Homo sapiens, UniProt P51812). Type of assay: functional.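 Also: measured within a kinome-wide profiling panel.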
Assay [9] deals with Dual specificity protein kinase CLK2 (Homo sapiens, UniProt P49760). Type of assay: functional.
For assay [10], the target named is Serine/threonine-protein kinase PLK3 (Homo sapiens, UniProt Q9H4B4). Type of assay: functional.
Assay [11] addresses ALK tyrosine kinase receptor (Homo sapiens, UniProt Q9UM73). Type of assay: functional.
For assay [12], the target named is Death-associated protein kinase 3 (Homo sapiens, UniProt O43293). The assay is classed as functional.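 Also: measured as one member of a kinome-wide profiling panel.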
Another assay deals with SRSF protein kinase 1 (Homo sapiens, UniProt Q96SB4). Type of assay: functional.
In assay [13] the target is Cell division cycle 7-related protein kinase (Homo sapiens, UniProt O00311). Type of assay: functional.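 Also: value obtained from a kinome-wide kinase panel.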
Assay [14] addresses Serine/threonine-protein kinase N2 (Homo sapiens, UniProt Q16513). The assay is classed as functional.
In assay [15] the target is Mitogen-activated protein kinase 13 (Homo sapiens, UniProt O15264). Type of assay: functional.
Assay [16] deals with Dual specificity tyrosine-phosphorylation-regulated kinase 3 (Homo sapiens, UniProt O43781). Type of assay: functional.
For another assay, the target named is Focal adhesion kinase 1 (Homo sapiens, UniProt Q05397). Type of assay: functional.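 Also: measured as one member of a kinome panel.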
Assay [17] deals with RAC-alpha serine/threonine-protein kinase (Homo sapiens, UniProt P31749). Type of assay: functional.
The target of assay [18] is Rho-associated protein kinase 1 (Homo sapiens, UniProt Q13464). Type of assay: functional.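 Also: measured within a broad kinome-wide panel profiling many kinases.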
The target in assay [19] is Tyrosine-protein kinase Fyn (Homo sapiens, UniProt P06241). The assay is classed as functional.
For assay [20], the target named is Cyclin-dependent kinase 1 (Homo sapiens, UniProt P06493). The assay is classed as functional.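 Also: Kinome-wide panel profiling, with the target listed as panel member CDC2.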
Assay [21] deals with 3-phosphoinositide-dependent protein kinase 1 (Homo sapiens, UniProt O15530). Type of assay: functional.
Assay [22] addresses Vascular endothelial growth factor receptor 1 (Homo sapiens, UniProt P17948). Type of assay: functional.
For assay [23], the target named is Serine/threonine-protein kinase MRCK alpha (Homo sapiens, UniProt Q5VT25). Type of assay: functional.

Calls of active or inactive are those of the source.

Sequence of Serine/threonine-protein kinase PLK3 (Q9H4B4 whole entry): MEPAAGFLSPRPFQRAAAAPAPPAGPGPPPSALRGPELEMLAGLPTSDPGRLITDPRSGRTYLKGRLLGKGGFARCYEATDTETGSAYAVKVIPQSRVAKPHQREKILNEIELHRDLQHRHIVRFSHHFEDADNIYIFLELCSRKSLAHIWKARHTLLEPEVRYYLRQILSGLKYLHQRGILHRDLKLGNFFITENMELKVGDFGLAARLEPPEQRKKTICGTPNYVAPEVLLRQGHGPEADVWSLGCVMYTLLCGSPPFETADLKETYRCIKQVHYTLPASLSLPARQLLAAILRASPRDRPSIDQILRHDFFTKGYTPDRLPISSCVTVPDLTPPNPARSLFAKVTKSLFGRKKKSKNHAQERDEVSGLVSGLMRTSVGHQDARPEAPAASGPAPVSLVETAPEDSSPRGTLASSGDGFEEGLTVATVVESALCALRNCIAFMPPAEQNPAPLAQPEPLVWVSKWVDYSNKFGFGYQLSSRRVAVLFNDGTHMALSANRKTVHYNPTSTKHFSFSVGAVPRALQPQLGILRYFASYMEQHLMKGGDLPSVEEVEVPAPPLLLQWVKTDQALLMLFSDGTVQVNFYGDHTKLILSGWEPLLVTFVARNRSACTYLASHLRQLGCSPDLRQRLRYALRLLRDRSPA
Sequence of SRSF protein kinase 1 (Q96SB4 whole entry): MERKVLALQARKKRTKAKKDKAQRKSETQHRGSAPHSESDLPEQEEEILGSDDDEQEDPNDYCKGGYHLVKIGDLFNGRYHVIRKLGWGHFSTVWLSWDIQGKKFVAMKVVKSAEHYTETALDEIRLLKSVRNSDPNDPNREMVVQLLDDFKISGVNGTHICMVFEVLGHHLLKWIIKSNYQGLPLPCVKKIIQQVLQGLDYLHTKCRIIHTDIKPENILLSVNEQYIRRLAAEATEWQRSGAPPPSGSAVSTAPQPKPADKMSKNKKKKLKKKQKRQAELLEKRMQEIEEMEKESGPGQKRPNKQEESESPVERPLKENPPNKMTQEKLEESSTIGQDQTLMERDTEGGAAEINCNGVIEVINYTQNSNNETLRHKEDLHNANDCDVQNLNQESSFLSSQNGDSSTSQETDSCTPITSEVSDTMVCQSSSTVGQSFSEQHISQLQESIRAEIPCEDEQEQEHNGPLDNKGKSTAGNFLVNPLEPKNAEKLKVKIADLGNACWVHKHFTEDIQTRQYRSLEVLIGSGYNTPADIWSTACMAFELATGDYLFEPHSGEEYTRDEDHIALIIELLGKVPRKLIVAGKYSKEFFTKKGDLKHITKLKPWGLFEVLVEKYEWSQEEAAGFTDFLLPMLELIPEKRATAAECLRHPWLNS
Sequence of Cyclin-dependent kinase 1 (P06493 whole entry): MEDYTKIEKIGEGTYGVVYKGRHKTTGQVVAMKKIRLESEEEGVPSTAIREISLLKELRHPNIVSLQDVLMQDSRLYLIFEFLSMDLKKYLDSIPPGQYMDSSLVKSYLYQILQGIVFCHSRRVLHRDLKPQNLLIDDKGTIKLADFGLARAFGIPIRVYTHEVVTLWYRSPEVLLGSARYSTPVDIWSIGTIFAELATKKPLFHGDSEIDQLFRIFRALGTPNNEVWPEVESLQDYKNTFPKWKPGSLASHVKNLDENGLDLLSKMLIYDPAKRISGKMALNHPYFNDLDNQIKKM
Sequence of Ribosomal protein S6 kinase alpha-3 (P51812 whole entry): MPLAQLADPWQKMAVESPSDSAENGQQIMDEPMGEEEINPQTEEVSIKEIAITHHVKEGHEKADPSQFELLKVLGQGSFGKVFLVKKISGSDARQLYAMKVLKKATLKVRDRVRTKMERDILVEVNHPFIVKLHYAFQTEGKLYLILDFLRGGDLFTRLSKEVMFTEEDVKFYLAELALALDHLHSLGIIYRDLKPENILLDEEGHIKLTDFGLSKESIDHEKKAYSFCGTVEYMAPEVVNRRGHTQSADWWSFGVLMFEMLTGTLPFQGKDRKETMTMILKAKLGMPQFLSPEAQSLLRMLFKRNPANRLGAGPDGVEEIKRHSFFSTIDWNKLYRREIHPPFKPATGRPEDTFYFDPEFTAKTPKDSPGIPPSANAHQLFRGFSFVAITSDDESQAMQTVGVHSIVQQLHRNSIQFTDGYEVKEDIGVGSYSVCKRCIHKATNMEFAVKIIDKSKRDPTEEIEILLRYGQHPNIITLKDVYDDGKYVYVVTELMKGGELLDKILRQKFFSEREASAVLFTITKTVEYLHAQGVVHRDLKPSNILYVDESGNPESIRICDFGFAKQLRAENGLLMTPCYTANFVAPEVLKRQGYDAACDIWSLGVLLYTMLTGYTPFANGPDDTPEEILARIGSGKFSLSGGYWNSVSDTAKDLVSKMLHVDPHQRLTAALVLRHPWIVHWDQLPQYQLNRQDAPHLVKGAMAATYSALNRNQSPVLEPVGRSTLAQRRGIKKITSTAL
Sequence of Cell division cycle 7-related protein kinase (O00311 whole entry): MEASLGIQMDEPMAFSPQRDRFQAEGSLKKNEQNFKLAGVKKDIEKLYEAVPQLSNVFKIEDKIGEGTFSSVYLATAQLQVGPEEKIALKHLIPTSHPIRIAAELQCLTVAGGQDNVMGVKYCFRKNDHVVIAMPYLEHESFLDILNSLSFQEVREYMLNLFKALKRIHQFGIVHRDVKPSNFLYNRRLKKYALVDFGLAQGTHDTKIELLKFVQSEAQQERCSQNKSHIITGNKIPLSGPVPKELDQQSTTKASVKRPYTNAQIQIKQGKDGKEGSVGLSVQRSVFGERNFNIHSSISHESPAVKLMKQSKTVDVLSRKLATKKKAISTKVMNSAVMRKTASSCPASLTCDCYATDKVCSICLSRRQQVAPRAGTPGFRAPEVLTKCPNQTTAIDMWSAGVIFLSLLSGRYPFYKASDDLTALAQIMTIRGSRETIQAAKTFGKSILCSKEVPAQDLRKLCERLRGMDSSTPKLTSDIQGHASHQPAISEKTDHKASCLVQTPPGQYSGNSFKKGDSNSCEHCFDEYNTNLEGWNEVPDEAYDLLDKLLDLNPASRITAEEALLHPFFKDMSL
Sequence of Paired box protein Pax-8 (Q06710 whole entry): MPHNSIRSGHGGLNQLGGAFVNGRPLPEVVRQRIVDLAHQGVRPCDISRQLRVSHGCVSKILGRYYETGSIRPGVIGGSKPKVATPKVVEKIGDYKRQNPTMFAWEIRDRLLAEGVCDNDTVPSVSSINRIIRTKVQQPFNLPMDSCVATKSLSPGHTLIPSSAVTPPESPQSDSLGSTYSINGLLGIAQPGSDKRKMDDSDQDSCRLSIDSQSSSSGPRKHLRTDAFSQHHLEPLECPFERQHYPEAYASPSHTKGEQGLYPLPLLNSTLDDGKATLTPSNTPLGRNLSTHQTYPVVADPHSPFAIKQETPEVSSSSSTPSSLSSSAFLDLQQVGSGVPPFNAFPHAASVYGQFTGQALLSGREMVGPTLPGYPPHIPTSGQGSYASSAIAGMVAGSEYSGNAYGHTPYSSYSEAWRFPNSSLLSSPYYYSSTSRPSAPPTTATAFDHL
Sequence of Dual specificity tyrosine-phosphorylation-regulated kinase 3 (O43781 whole entry): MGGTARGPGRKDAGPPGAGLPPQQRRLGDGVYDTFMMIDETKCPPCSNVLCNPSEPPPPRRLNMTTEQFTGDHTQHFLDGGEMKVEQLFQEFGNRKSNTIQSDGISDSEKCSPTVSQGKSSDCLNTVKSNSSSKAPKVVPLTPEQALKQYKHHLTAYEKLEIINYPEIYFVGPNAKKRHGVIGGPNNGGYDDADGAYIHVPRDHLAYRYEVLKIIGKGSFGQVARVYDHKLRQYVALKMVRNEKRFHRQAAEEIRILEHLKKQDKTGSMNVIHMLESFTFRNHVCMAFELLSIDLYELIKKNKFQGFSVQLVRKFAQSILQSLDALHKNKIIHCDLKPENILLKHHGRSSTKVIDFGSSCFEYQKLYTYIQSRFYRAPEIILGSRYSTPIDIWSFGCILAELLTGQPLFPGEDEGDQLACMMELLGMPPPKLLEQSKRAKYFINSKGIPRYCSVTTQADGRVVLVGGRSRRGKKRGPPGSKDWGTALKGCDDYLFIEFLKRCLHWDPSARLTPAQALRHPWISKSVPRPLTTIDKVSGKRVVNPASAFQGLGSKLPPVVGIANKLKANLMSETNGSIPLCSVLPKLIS
Sequence of Death-associated protein kinase 3 (O43293 whole entry): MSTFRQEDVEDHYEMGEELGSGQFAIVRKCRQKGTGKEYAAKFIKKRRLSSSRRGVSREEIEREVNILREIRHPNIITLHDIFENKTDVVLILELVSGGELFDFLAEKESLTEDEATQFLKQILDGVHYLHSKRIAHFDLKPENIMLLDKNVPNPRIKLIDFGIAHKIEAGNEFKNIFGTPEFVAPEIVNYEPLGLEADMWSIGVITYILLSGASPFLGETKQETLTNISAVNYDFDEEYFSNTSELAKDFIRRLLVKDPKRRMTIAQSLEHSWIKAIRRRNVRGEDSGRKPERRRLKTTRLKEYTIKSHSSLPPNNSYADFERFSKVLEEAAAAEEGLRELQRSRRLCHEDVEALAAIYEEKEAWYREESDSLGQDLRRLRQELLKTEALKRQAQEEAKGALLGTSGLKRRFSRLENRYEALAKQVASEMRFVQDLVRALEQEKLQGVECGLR
Sequence of Dual specificity protein kinase CLK2 (P49760 whole entry): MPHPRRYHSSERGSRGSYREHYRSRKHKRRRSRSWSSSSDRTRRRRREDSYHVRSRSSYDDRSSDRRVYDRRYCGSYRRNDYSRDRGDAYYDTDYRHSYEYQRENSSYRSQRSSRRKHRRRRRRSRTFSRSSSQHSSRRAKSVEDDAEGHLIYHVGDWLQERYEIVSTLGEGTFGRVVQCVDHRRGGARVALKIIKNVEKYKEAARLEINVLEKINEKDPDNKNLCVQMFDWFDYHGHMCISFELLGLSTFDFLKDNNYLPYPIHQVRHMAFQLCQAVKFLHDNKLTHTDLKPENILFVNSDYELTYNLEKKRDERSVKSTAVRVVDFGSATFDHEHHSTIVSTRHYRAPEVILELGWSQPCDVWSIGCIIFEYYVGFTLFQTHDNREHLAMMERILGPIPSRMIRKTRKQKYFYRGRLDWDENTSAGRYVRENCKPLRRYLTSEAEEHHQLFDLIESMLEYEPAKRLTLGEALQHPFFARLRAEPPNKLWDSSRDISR

`Cc1ccc(C(=O)NC2(O)C(=O)c3ccccc3C2=O)cc1C`: the half-maximal inhibitory concentration (IC50) in assay [1] was 4.4 µM (active); in [2] it was 4.89 µM (active).

`O=[N+]([O-])c1c(Nc2ccccn2)cc(Cl)c2nonc12`: the EC50 in the assay with BJ is 5.14 µM (inconclusive); in assay [3] it was 5.44 µM (inconclusive). The half-maximal cytotoxic concentration (CC50) was 20.3 µM (active) in assay [4] and 16.7 µM (active) in [5].

In the case of `CC[C@@H](C)[C@H](CNC)NC[C@@H](Cc1cccc2ccccc12)NCCc1cccc(C(F)(F)F)c1`, the figures for the 50% effective concentration (EC50) in assay [6] and in [7] were 7.84 µM (active) and > 38 µM (not active), respectively. For the same compound, on Paired box protein Pax-8, the half-maximal activity concentration (AC50) was 11.9 µM (active).

Turning to `CC(C)(CO)CNc1nccc(-c2c(-c3ccc(F)cc3)nc3c(CC4CC4)nccn23)n1`, the Ki was > 7.94 µM (inactive) in assay [8]; > 7.94 µM (inactive) in assay [9]; > 7.94 µM (inactive) in [10]; > 1.26 µM (inactive) in assay [11]; > 1.26 µM (inactive) in [12]; > 7.94 µM (inactive) at SRSF protein kinase 1. In addition, the Ki in [13] was > 1.26 µM (inactive); in assay [14] it was > 7.94 µM (inactive); in assay [15], > 7.94 µM (inactive); in assay [16] it was > 6.31 µM (inactive); at Focal adhesion kinase 1 it was > 1.58 µM (inactive); in [17], > 7.94 µM (inactive). The Ki in assay [18] was > 10 µM (inactive); in assay [19], > 0.794 µM (inactive); in assay [20], > 7.94 µM (inactive); in [21], > 3.98 µM (inactive); in [22], > 0.398 µM (inactive); in assay [23] it was > 10 µM (inactive).

One may read the IC50 as the concentration at which inhibition is half-maximal. The EC50 is the concentration needed to bring the measured effect to its halfway point. In general, CC50 refers to the concentration that lowers cell viability or growth by half. Usually AC50 stands for the midpoint of the concentration-response curve, whichever way the signal moves. The Ki is a dissociation constant, usually derived from enzyme kinetics or from competition with a known ligand.
